Data: US12122816B2, “Long acting peptide tyrosine tyrosine (PYY) analogs and methods of use” (Intarcia Therapeutics, Inc., priority 2020, dated 2024)
No end group written: not given here.

How the values were obtained:
human Y2 receptor = molecular target: T1, human Y2 receptor (Homo sapiens, UniProt P49146); test: NPY receptor functional assay (cAMP, HEK-CNG cells, ACTOne membrane potential dye); assay type: cell-based; settings: NPY2R pEC50, HEK-CNG cells; standard PYY(3-36); species (human or rat) not given
T1 sequence (P49146 1-381): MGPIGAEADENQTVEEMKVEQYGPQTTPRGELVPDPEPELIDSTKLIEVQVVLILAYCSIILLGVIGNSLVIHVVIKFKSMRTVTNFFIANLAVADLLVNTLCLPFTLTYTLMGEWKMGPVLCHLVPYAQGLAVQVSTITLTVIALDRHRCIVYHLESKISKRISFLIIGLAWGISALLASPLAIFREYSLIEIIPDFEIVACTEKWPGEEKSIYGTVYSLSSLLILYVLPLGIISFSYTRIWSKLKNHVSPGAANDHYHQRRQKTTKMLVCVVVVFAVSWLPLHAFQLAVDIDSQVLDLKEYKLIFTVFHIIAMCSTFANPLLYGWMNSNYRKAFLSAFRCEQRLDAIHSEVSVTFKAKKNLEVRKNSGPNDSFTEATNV
Outline: (§1)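 HEK-CNG cells stably expressing each human receptor; peptides added in triplicate for 50 minutes at room temperature, with agonism read as decreased isoproterenol-induced membrane potential dye signal (final/initial read).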

human Y4 receptor = human Y4 receptor (Homo sapiens, UniProt P50391); test: as above; assay type: cell-based; settings: standard PP, species (human or rat) not given
Outline: as §1

[1] = Intravenous infusion pharmacokinetics to assess clearance (CL); assay type: in vivo, Sprague-Dawley rats; settings: male, Sprague-Dawley, plasma, rat, 1-hour IV infusion, 0.033 mg/kg
Experimental: Peptides were dissolved in 0.05% Tween-20 in PBS (pH7.4) and administered as a 1-hour subcutaneous infusion to non-fasted male Sprague-Dawley rats (n=3 per group) at a final dose of 0.033 mg/kg via a cannula placed into the femoral vein. Formulations were administered at a rate of 0.150 mL/h/kg. […] Plasma was prepared by centrifugation and stored at −80° C. until analysis.
(§2) A 70 μL aliquot of each plasma sample was placed into to a 96-well plate. To each well was added 210 μL of 0.1% TFA in 2:1 ethanol:acetonitrile containing an appropriate internal standard. Plates were vortex mixed for 10 min at 1300 rpm, and then centrifuged for 10 min at 500×g. Supernatants (210 μL) were placed into a clean 96-well plate and evaporated under a nitrogen stream at 45° C. Residues were reconstituted in 80 μL of 20% acetonitrile (aq) containing 0.1% formic acid.
(§3) All calibration standards were prepared in control rat plasma containing K2EDTA and protease inhibitor cocktail.
(§4) Samples were injected onto a 2.1×50 mm reverse phase C18 analytical column, typically a Waters CORTECS UPLC C18+, 1.6 μm (Waters Corporation, Milford, MA) or similar. […] Typical flow rates were 550 μL/min. The column temperature was held constant at 45° C. Peptides were quantified by monitoring one or more product ions produced from a multiply charged parent ion.

[2] = Subcutaneous bolus injection pharmacokinetics to assess bioavailability (F); assay type: in vivo, Sprague-Dawley rats; settings: male, Sprague-Dawley, plasma; rat, SC bolus 0.1 mg/kg
Experimental: Peptides were dissolved in sterile saline and administered to non-fasted male Sprague-Dawley rats (n=3 per group) at a dose of 0.1 mg/kg via a single bolus injection into the subcutaneous space between the scapulae. […] Plasma was prepared by centrifugation and stored at −80° C. until analysis.
as §2, §3, §4

[3] = Solubility in DI water at room temperature (visual inspection); assay type: physicochemical; settings: DI water, TFA salt form, read-out: Solubility (in Water, RT)
Experimental: The analog polypeptides described herein were tested for solubility in saline or in aqueous (DI water) at room temperature. Samples were visually inspected for clarity of the sample, any appearance of turbidity or haziness.

[4] = Stability in water or saline (1 mg/ml) at 37° C., purity by LC/MS and HPLC; assay type: physicochemical; settings: TFA salt form
human Y5 receptor = molecular target: T2, human Y5 receptor (Homo sapiens, UniProt Q15761); test: NPY receptor functional assay (cAMP, HEK-CNG cells, ACTOne membrane potential dye); assay type: cell-based; settings: NPY5R pEC50, HEK-CNG cells; standard NPY; species (human or rat) not given
T2 sequence (Q15761 1-445): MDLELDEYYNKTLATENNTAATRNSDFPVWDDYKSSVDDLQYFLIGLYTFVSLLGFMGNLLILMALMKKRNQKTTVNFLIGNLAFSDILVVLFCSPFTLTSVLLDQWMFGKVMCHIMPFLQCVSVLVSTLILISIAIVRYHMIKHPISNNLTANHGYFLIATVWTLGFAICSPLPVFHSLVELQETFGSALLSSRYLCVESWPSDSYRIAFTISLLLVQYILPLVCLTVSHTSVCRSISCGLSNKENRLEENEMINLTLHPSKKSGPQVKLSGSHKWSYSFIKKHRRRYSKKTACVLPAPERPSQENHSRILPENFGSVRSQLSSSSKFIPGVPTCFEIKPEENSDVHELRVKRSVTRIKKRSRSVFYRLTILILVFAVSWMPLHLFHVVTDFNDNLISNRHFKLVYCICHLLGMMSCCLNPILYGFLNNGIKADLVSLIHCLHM
Outline: as §1

[5] = cited from earlier work

human Y4 receptor, sequence (P50391 whole entry): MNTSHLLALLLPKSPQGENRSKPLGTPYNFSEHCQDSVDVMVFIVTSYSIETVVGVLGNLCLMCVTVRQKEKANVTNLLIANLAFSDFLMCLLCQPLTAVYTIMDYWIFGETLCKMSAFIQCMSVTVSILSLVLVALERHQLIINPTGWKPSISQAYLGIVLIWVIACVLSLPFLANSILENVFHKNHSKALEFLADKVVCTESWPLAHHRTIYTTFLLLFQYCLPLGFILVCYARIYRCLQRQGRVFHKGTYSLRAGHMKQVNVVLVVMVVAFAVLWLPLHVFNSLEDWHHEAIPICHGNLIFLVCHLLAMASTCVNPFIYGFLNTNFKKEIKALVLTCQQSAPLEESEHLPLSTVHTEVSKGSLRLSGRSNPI

Compound | EC50 (human Y2 receptor) | NPY4R pEC50 (human Y4 receptor) | clearance [1] | half-life ([1]; read-out: IV t1/2 (converted)) | bioavailability [2] | solubility [3] | Stability (37° C./RT, T0: Mar. 25, 2020) [4] | EC50 (human Y5 receptor) | half-life in serum [5]
CC(C)C[C@H](NC(=O)[C@H](Cc1ccc(O)cc1)NC(=O)[C@H](Cc1c[nH]cn1)NC(=O)[C@H](CCCNC(=N)N)NC(=O)[C@H](C)NC(=O)[C@H](CC(=O)O)NC(=O)[C@H](C)NC(=O)[C@H](Cc1ccc(O)cc1)NC(=O)[C@H](Cc1ccc(O)cc1)NC(=O)[C@H](CCCNC(=N)N)NC(=O)[C@H](CC(N)=O)NC(=O)[C@H](Cc1c[nH]c2ccccc12)NC(=O)[C@H](CCC(=O)O)NC(=O)[C@H](CCC(=O)O)NC(=O)[C@@H]1CCCN1C(=O)[C@H](CO)NC(=O)[C@H](C)NC(=O)[C@H](CC(=O)O)NC(=O)[C@H](CCCCN)NC(=O)[C@H](CCCCNC(=O)CC[C@H](NC(=O)CC[C@H](NC(=O)CCCCCCCCCCCCCCCCCCC(=O)O)C(=O)O)C(=O)O)NC(=O)[C@@H]1CCCN1C(=O)[C@H](C)NC(=O)[C@H](CCC(=O)O)NC(=O)[C@@H]1CCCN1C(=O)[C@H](CCCCN)NC(=O)[C@@H]1CCCN1)C(=O)N[C@@H](CC(N)=O)C(=O)N[C@@H](Cc1c[nH]c2ccccc12)C(=O)N[C@@H](CC(C)C)C(=O)N[C@H](C(=O)N[C@@H](CCCNC(=N)N)C(=O)N[C@@H](CCC(N)=O)C(=O)N[C@@H](CCCNC(=N)N)C(=O)N(C)[C@@H](Cc1ccc(O)cc1)C(N)=O)[C@@H](C)O [Compound A7] | 0.2 nM | inactive | 0.326 mL/min/kg | 6.44 h | 66.7% |  |  |  | 
CC(C)C[C@H](NC(=O)[C@H](CC(=O)O)NC(=O)[C@H](CCCCN)NC(=O)[C@H](Cc1ccc(O)cc1)NC(=O)[C@H](Cc1ccc(O)cc1)NC(=O)[C@H](CCCNC(=N)N)NC(=O)[C@H](CC(N)=O)NC(=O)[C@H](Cc1c[nH]c2ccccc12)NC(=O)[C@H](CCC(=O)O)NC(=O)[C@H](CCC(=O)O)NC(=O)[C@@H]1CCCN1C(=O)[C@H](CO)NC(=O)[C@H](C)NC(=O)[C@H](CC(=O)O)NC(=O)[C@H](CCCCNC(=O)CC[C@H](NC(=O)CC[C@H](NC(=O)CCCCCCCCCCCCCCCCCCC(=O)O)C(=O)O)C(=O)O)NC(=O)CNC(=O)[C@@H]1CCCN1C(=O)[C@H](CCCCN)NC(=O)[C@H](CCC(=O)O)NC(=O)[C@@H]1CCCN1C(=O)[C@H](CCCCN)NC(=O)[C@@H]1CCCN1)C(=O)N[C@@H](CCCNC(=N)N)C(=O)N[C@@H](Cc1c[nH]cn1)C(=O)N[C@@H](Cc1ccc(O)cc1)C(=O)N[C@@H](CC(C)C)C(=O)N[C@@H](CC(N)=O)C(=O)N[C@@H](Cc1c[nH]c2ccccc12)C(=O)N[C@@H](CC(C)C)C(=O)N[C@H](C(=O)N[C@@H](CCCNC(=N)N)C(=O)N[C@@H](CCC(N)=O)C(=O)N[C@@H](CCCNC(=N)N)C(=O)N[C@@H](Cc1ccccc1)C(N)=O)[C@@H](C)O [Compound A19] | 0.0316 nM |  |  |  |  | 59 mg/mL | 88.8 | 2 nM | 
human amylin: 37-residue polypeptide hormone co-secreted with insulin from pancreatic β-cells (KCNTATCATQRLANFLVHSSNNFGAILSSTNVGSNTY; not fully specified (C-terminus, bridges); cysteine pairing not given here; UniProt P10997 34-70, looked up) |  |  |  |  |  |  |  |  | about 13 minutes
